US20120270943A1 (priority 2011, published 2012)

Key:
[1] = administration of D-aspartic acid hydrochloride and/or ethyl ester hydrochloride; assay type: in vivo; settings: administration by ingestion, injection or nasal spray, 10 mg to 100 g per day
Method: The D-aspartic acid hydrochloride or D-aspartic acid ethyl ester hydrochloride are administered by ingestion of pills, capsules, powdered drink mixes, beverages, confectionaries, syrups, and/or chewable tablets, or by injection of an aqueous solution, or via a nasal spray.

water solubility = assay type: physicochemical
humans = settings: cited from earlier work
pituitary gland; testes = settings: in vivo; cited from earlier work

Structure (SMILES): CCOC(=O)C[C@@H](N)C(=O)OCC.Cl [D-aspartic acid diethyl ester hydrochloride]
- LH and HGH levels [1]: increase
- libido and/or mood [1]: improves/increases
- strength, muscle mass, endurance and rate of recovery [1]: increases
- testosterone [1]: increase
- water solubility (in words) (water solubility): high water solubility

Structure (SMILES): Cl.N[C@H](CC(=O)O)C(=O)O [D-aspartic acid hydrochloride]
- LH and HGH levels [1]: increase
- libido and/or mood [1]: improves/increases
- strength, muscle mass, endurance and rate of recovery [1]: increases
- testosterone [1]: increase

Structure (SMILES): N[C@H](CC(=O)O)C(=O)O [D-aspartic acid]
- LH levels (humans; oral, almost four (4) grams a day, men): increased significantly
- rise of testosterone, level greater than day zero (humans; oral, almost four (4) grams a day, peak on day twelve (12), twenty-three (23) men): 42%
- levels of testosterone after discontinuation (humans; three (3) days after discontinuation): still significantly increased
- effect in the testes upon testosterone production (pituitary gland; testes): direct stimulating effect
- release of Luteinizing Hormone (LH) and Growth Hormone (GH) from the pituitary gland (pituitary gland; testes): stimulate the release
